# Source: article PMC8645336, “Benchmarking a highly selective USP30 inhibitor for enhancement of mitophagy and pexophagy” (Life Science Alliance, 2021)
# Legend:
# CYLD = target: T1, CYLD (Homo sapiens, UniProt Q9NQC7); assay: biochemical; parameters: Ubiquigent DUB profiler selectivity panel, remaining enzyme activity as % of control; conditions: read-out: % of control remaining
# T1 sequence (Q9NQC7 1-956): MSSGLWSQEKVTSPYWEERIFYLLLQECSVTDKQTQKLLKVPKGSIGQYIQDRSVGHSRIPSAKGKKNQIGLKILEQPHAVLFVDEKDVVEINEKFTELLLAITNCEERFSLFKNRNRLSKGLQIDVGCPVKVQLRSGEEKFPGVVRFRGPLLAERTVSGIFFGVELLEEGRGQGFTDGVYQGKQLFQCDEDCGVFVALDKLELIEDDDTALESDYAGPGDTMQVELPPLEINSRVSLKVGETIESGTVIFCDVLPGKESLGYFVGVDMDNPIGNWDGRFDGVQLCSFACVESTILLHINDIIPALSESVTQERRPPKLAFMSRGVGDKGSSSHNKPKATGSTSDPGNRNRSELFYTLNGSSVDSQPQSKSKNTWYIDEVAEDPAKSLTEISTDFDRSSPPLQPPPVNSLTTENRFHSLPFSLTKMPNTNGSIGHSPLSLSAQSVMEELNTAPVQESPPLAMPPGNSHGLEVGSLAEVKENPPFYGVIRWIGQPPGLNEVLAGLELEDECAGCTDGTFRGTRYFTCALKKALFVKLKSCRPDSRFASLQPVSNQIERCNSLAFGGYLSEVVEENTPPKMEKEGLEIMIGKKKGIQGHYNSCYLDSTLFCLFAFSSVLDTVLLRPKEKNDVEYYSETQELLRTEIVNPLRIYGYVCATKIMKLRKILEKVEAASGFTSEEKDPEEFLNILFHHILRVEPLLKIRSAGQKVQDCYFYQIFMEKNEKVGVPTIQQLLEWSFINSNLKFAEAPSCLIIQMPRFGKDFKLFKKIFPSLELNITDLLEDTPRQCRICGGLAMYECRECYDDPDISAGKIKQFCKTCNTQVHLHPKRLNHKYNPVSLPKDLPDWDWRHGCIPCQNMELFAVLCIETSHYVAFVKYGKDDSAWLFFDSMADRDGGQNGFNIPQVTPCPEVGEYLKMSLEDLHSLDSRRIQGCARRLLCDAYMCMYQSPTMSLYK
# Outline: (§1)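 In YFP-PRKN-overexpressing hTERT-RPE1 cells, 1 h antimycin A plus oligomycin A (1 μM each) with CMPD-39, then Western blot of TOMM20 ubiquitylation. Target engagement: 2 h compound, then 10 min HA-Ub-PA at 37°C, read as USP30 shift. DUB panel (>40 enzymes) screened at 1-100 μM.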
# USP25 = target: T2, USP25 (Homo sapiens, UniProt Q9UHP3); assay: biochemical; parameters: Ubiquigent DUB profiler selectivity panel, remaining enzyme activity as % of control; conditions: read-out: % of control remaining
# T2 sequence (Q9UHP3 1-1055): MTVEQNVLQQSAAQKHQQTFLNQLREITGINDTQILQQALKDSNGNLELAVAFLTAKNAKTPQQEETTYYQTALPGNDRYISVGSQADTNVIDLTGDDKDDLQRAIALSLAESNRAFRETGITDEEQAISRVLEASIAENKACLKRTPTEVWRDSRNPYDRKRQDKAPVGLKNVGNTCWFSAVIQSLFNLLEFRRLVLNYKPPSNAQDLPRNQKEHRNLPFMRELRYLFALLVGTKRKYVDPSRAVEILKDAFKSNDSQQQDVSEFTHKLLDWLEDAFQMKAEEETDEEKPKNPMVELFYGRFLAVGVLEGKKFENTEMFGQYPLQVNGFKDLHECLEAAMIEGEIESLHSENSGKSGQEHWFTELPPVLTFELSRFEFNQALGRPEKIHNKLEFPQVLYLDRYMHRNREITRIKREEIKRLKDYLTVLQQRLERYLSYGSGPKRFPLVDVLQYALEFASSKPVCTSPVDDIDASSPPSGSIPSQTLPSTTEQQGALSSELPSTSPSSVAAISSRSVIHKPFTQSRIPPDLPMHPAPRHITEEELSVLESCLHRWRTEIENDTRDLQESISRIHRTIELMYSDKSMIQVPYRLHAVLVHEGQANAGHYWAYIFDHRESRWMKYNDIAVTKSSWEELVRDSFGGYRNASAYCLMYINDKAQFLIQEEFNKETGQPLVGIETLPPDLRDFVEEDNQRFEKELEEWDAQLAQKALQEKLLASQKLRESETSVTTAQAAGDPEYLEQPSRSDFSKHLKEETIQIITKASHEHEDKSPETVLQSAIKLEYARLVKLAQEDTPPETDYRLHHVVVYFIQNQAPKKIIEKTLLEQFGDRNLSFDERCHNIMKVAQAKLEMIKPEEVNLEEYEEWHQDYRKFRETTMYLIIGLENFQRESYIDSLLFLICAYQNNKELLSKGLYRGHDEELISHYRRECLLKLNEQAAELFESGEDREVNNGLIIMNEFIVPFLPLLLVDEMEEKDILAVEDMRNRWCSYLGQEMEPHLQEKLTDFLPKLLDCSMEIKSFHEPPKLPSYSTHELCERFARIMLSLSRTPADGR
# Outline: as §1
smiles,measurement,setting,value
"CC(C)(C)NS(=O)(=O)c1ccc(NC(=O)[C@H](Cc2ccccc2)NC(=O)c2ccc(F)cc2)cc1 [compound 39, CMPD-39]",remaining activity at 1 µM,CYLD,107%
same,remaining activity at 10 µM,CYLD,102%
same,remaining activity at 100 µM,CYLD,98%
same,remaining activity at 1 µM,USP25,103%
same,remaining activity at 10 µM,USP25,94.5%
same,remaining activity at 100 µM,USP25,103%
